The values below come from ChEMBL document CHEMBL3399947, “Structure activity relationship of selective GABA uptake inhibitors” (Bioorg Med Chem, 2015).

SMILES strings stand for the structures.

Common to all, as to format: cell-based
Assay [1] addresses Sodium- and chloride-dependent GABA transporter 1 (Mus musculus, UniProt P31648). Nature of the assay: Inhibition of mouse mGAT1 expressed in HEK293 cells assessed as inhibition of [3H]GABA uptake after 3 mins incubation by TopCount microplate scintillation counting analysis. To be noted: read-out: IC50.
In a further assay the target is T1, GABA transporter 2 (Mus musculus, UniProt P31651).
T1 sequence (P31651 whole entry): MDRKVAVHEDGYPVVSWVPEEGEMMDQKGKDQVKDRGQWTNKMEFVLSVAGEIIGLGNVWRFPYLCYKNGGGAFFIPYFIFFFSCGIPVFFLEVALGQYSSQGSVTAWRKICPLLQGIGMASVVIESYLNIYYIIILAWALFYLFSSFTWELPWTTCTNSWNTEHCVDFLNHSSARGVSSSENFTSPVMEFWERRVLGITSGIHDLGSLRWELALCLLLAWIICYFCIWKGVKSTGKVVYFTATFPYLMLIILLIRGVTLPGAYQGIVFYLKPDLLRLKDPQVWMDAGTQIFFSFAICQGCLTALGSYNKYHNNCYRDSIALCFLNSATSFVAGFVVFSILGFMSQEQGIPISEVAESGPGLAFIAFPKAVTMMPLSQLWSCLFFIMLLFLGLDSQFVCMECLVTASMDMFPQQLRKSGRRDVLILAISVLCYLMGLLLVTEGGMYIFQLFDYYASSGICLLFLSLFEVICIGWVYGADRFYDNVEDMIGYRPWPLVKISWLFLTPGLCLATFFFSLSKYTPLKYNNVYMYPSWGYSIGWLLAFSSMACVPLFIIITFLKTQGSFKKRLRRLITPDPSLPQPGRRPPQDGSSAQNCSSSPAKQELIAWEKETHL
Nature of the assay: Inhibition of mouse mGAT2 expressed in HEK293 cells assessed as inhibition of [3H]GABA uptake after 3 mins incubation by TopCount microplate scintillation counting analysis. To be noted: read-out: IC50.

In another assay the target is T2, GABA transporter 3 (Mus musculus, UniProt P31649).
T2 sequence (P31649 whole entry): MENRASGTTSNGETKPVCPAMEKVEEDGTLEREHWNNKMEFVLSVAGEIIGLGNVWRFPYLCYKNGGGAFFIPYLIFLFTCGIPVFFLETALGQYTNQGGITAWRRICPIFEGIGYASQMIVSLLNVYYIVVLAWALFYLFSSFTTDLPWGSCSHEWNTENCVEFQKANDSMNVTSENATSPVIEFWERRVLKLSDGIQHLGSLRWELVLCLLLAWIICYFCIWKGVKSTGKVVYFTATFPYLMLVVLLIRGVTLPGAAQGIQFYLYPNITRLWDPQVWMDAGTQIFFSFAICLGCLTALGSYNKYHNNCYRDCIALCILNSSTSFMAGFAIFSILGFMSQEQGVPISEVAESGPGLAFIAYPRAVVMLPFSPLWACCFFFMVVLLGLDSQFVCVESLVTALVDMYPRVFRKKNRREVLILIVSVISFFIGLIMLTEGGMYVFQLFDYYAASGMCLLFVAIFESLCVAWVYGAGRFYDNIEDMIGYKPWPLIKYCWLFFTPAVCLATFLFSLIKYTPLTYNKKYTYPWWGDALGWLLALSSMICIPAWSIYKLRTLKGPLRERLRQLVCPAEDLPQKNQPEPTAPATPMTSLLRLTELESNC
Nature of the assay: Inhibition of mouse mGAT3 expressed in HEK293 cells assessed as inhibition of [3H]GABA uptake after 3 mins incubation by TopCount microplate scintillation counting analysis.

The target in another assay is T3, GABA transporter 4 (Mus musculus, UniProt P31650).
T3 sequence (P31650 whole entry): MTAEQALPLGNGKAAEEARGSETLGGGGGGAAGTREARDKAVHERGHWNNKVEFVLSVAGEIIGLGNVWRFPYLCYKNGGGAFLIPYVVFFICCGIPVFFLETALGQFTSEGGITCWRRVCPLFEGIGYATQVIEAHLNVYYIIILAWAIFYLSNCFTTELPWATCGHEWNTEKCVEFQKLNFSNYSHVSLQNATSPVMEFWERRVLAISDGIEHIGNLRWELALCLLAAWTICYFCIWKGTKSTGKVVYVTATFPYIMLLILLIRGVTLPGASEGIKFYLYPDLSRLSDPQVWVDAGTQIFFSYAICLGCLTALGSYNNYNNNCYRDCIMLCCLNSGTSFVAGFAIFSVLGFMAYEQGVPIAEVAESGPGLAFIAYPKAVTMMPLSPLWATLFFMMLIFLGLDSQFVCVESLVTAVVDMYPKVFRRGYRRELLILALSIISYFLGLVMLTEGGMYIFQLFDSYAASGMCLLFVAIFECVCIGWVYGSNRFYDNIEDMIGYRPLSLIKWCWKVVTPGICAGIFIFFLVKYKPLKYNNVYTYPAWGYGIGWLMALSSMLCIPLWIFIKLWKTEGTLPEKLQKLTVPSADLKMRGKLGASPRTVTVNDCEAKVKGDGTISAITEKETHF
Nature of the assay: Inhibition of mouse mGAT4 expressed in HEK293 cells assessed as inhibition of [3H]GABA uptake after 3 mins incubation by TopCount microplate scintillation counting analysis. To be noted: read-out: IC50.

In the case of `CN(CCON=C(c1ccccc1)c1ccccc1)C1CCCC=C1C(=O)O` (stereo not drawn), the IC50 in assay [1] was more than 2000 µM; on GABA transporter 2 it was 814 µM; at GABA transporter 3 (read-out: IC50) it was more than 2000 µM; at GABA transporter 4, more than 2000 µM.

Regarding `CN(CCOC(c1ccc(C(F)(F)F)cc1)c1ccc(C(F)(F)F)cc1)[C@@H]1CCCC[C@@H]1C(=O)O`, the IC50 was found to be 445 µM in assay [1], 63.1 µM at GABA transporter 2, 336 µM on GABA transporter 3 (read-out: IC50) and 539 µM at GABA transporter 4.

With `CN(CCC=C1c2ccccc2CCc2ccccc21)[C@@H]1CCCC[C@@H]1C(=O)O`, the IC50 in assay [1] turned out to be 1820 µM; at GABA transporter 2 it was 88.9 µM; on GABA transporter 3 (read-out: IC50), 1030 µM; at GABA transporter 4, 1450 µM.

Turning to `CCN1CCN(CCON=C(c2ccccc2)c2ccccc2)CC(C(=O)O)C1` (stereo not drawn), the IC50 (in assay [1]; at GABA transporter 2; at GABA transporter 3 (read-out: IC50); at GABA transporter 4) was more than 1000 µM throughout.

Consider `CN(CCC=C1c2ccccc2CCc2ccccc21)CCC(=O)O`, for which the IC50 came out at 77.7 µM in assay [1], 735 µM at GABA transporter 2, 1050 µM at GABA transporter 3 (read-out: IC50) and 1700 µM at GABA transporter 4.

With `CN(CCON=C(c1ccccc1)c1ccccc1)CCC(=O)O`, the IC50 was 9.7 µM in assay [1], 7520 µM at GABA transporter 2, 674 µM on GABA transporter 3 (read-out: IC50) and 768 µM on GABA transporter 4.

For `CN(CCON=C(c1ccccc1)c1ccccc1)[C@H]1CCCC[C@H]1CO`, the IC50 is 415 µM in assay [1], 49.1 µM at GABA transporter 2, 295 µM at GABA transporter 3 (read-out: IC50) and 136 µM on GABA transporter 4.

As for `CCN1CCN(CCC=C(c2sccc2C)c2sccc2C)CC(C(=O)O)C1` (stereo not drawn), the IC50 is 483 µM in assay [1], 318 µM on GABA transporter 2, 1700 µM on GABA transporter 3 (read-out: IC50) and more than 1000 µM on GABA transporter 4.

Turning to `CNCCOC(c1ccc(C(F)(F)F)cc1)c1ccc(C(F)(F)F)cc1`, the IC50 in assay [1] was 163 µM; at GABA transporter 2, 190 µM; on GABA transporter 3 (read-out: IC50), 58 µM; at GABA transporter 4, 143 µM.

As for `COc1ccccc1C1(O)CCN(CCCn2c3ccccc3c3ccccc32)CC1`, the IC50 at GABA transporter 2 is 1.4 µM; on GABA transporter 3 (read-out: IC50), 41 µM.

For `CCOC(=O)[C@H]1CCCC[C@H]1N(C)CCC=C1c2ccccc2CCc2ccccc21`, the IC50 in assay [1] is 1190 µM; at GABA transporter 2, 444 µM; at GABA transporter 3 (read-out: IC50), 1400 µM; at GABA transporter 3 (read-out: pIC50 (converted)) it was 1740 µM; on GABA transporter 4, more than 1000 µM.

In the case of `CN(CCC=C1c2ccccc2CCc2ccccc21)[C@@H]1CCCC[C@H]1C(=O)O` (racemic), the IC50 in assay [1] came to 972 µM; at GABA transporter 2 it was 125 µM; at GABA transporter 3 (read-out: IC50), 985 µM; at GABA transporter 4 it was 844 µM.

As for `CN(CCOC(c1ccc(C(F)(F)F)cc1)c1ccc(C(F)(F)F)cc1)[C@@H]1CCCC[C@H]1C(=O)O` (racemic), the IC50 came out at 426 µM in assay [1], 138 µM on GABA transporter 2, 433 µM at GABA transporter 3 (read-out: IC50) and 392 µM on GABA transporter 4.

For `CN(CCON=C(c1ccccc1)c1ccccc1)[C@@H]1CCCC[C@H]1C(=O)O` (racemic), the IC50 was 1100 µM on GABA transporter 2, more than 2000 µM on GABA transporter 3 (read-out: IC50) and more than 2000 µM at GABA transporter 4.

For `CCOC(=O)[C@@H]1CCCC[C@@H]1N(C)CCC=C1c2ccccc2CCc2ccccc21`, the IC50 in assay [1] came to 1370 µM; on GABA transporter 2 it was 375 µM; at GABA transporter 3 (read-out: IC50) it was 1340 µM; on GABA transporter 4, 1670 µM.

As to `Cc1ccsc1C(=CCCN1CCNCC(C(=O)O)C1)c1sccc1C` (stereo not drawn), the IC50 in assay [1] is 43.8 µM; at GABA transporter 2, 370 µM; on GABA transporter 3 (read-out: IC50), 844 µM; on GABA transporter 4, 1740 µM.

Turning to `Cc1ccsc1C(=CCCN1CCC[C@@H](C(=O)O)C1)c1sccc1C` [TIAGABINE], at GABA transporter 3 (read-out: IC50), the IC50 was more than 300 µM.

As to `CCOC(=O)[C@H]1CCCC[C@H]1N(C)CCON=C(c1ccccc1)c1ccccc1`, the IC50 in assay [1] came out at 1240 µM; on GABA transporter 2, 114 µM; on GABA transporter 3 (read-out: IC50), 1050 µM; on GABA transporter 4 it was 836 µM.

In the case of `CCOC(=O)[C@@H]1CCCC[C@@H]1N(C)CCC=C(c1sccc1C)c1sccc1C`, the IC50 in assay [1] stood at 801 µM; on GABA transporter 2, 217 µM; on GABA transporter 3 (read-out: IC50) it was 602 µM; at GABA transporter 4, 835 µM.

As to `Cc1ccsc1C(=CCCN1CCN(CCO)CC(C(=O)O)C1)c1sccc1C` (stereo not drawn), the IC50 (in assay [1]; on GABA transporter 2; on GABA transporter 3 (read-out: IC50); at GABA transporter 4) was more than 1000 µM each time.

In the case of `Cc1ccsc1C(=CCCN1CCNCC1C(=O)O)c1sccc1C` (racemic), the IC50 in assay [1] is 195 µM; on GABA transporter 2 it was 1400 µM; on GABA transporter 3 (read-out: IC50) it was 1660 µM; on GABA transporter 4, 883 µM.

For the molecule `CN(CCCP(=O)(O)O)CCON=C(c1ccccc1)c1ccccc1`, the IC50 (in assay [1]; on GABA transporter 2; on GABA transporter 3 (read-out: IC50); at GABA transporter 4) was more than 1000 µM each time.

On to `CCOC(=O)[C@H]1CCCC[C@H]1N(C)CCC=C(c1sccc1C)c1sccc1C`, for which the IC50 in assay [1] is 604 µM; at GABA transporter 2, 201 µM; on GABA transporter 3 (read-out: IC50), 654 µM; at GABA transporter 3 (read-out: pIC50 (converted)), 646 µM; on GABA transporter 4 it was 1220 µM.

As to `Cc1ccsc1C(=CCCN1CCN(C(=N)N)CC(C(=O)O)C1)c1sccc1C` (stereo not drawn), the IC50 (in assay [1]; at GABA transporter 2; on GABA transporter 3 (read-out: IC50); at GABA transporter 4) was more than 1000 µM in each case.

In the case of `Cc1ccsc1C(=CCCNCCC(=O)O)c1sccc1C`, the IC50 was found to be 171 µM in assay [1], 504 µM at GABA transporter 2, 796 µM at GABA transporter 3 (read-out: IC50) and 1730 µM on GABA transporter 4.

With `CNCCC=C(c1sccc1C)c1sccc1C`, the IC50 in assay [1] is 160 µM; at GABA transporter 2, 179 µM; at GABA transporter 3 (read-out: IC50), 137 µM; on GABA transporter 4, 254 µM.

As for `Cc1ccsc1C(=CCCN(C)[C@H]1CCCC[C@H]1CO)c1sccc1C`, the IC50 came out at 215 µM in assay [1], 27 µM at GABA transporter 2, 168 µM on GABA transporter 3 (read-out: IC50) and 146 µM on GABA transporter 4.

As for `CN(CCC=C1c2ccccc2CCc2ccccc21)[C@H]1CCCC[C@H]1C(=O)O`, the IC50 in assay [1] is 1360 µM; on GABA transporter 2, 147 µM; on GABA transporter 3 (read-out: IC50) it was 1840 µM; on GABA transporter 3 (read-out: pIC50 (converted)), 1450 µM; on GABA transporter 4, 649 µM.

For `Cc1ccsc1C(=CCCN(C)[C@@H]1CCCC[C@H]1C(=O)O)c1sccc1C`, the IC50 in assay [1] is 194 µM; on GABA transporter 2, 133 µM; on GABA transporter 3 (read-out: IC50), 633 µM; at GABA transporter 4, 551 µM.

In the case of `O=C(O)CCNCc1cn(CCOC(c2ccc(C(F)(F)F)cc2)c2ccc(C(F)(F)F)cc2)nn1`, the IC50 (in assay [1]; at GABA transporter 2; on GABA transporter 3 (read-out: IC50); on GABA transporter 4) was more than 1000 µM throughout.

As for `COc1ccc(C(OCCN2CCC[C@H](C(=O)O)C2)(c2ccc(OC)cc2)c2ccc(OC)cc2)cc1`, on GABA transporter 2, the IC50 was found to be 22 µM.
